Experimental data reported in US8207133B1, “Peptides that down regulate the activity of plasma membrane transporters including sodium-D-glucose cotransporter SGLT1” (Julius-Maximilians-Universitat Wurzburg, priority 2005, dated 2012).
Where two headings read alike, the source gives them in different places. Residues, ends and D or L forms follow the SMILES beside them.

How the values were obtained:
[1] = biological target: T1, hPEPT1 (Homo sapiens, UniProt P46059); test: Electrogenic peptide transport by hPEPT1 in oocytes, two-electrode voltage clamp; assay type: cell-based
T1 construct: expressed in transfected cells; host or cells: Xenopus laevis oocytes (cRNA injection, 30 ng per oocyte)
T1 sequence (P46059 1-708): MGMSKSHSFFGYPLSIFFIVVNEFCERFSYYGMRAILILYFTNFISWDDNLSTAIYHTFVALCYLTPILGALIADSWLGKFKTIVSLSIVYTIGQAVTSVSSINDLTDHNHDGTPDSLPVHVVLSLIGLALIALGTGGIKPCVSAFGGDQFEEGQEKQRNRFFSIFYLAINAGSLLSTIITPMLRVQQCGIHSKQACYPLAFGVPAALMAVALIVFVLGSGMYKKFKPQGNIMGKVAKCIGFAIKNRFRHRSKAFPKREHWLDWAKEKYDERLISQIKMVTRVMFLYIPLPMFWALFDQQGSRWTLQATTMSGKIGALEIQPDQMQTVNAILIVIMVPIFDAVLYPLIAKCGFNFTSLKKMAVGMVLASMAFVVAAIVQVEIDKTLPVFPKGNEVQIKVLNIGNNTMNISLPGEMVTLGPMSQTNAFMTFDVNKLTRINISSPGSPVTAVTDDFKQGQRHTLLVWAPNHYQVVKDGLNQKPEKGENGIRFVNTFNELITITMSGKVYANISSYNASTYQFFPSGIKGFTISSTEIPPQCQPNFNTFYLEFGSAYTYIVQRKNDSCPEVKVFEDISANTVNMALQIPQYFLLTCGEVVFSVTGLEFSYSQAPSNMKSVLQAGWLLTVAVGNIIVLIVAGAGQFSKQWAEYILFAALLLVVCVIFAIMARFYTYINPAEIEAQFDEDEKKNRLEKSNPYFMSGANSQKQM
Experimental: The oocytes were incubated for three days at 16° C. in ORi buffer (in mM: 5 HEPES-Tris, pH 7.4, 100 NaCl, 3 KCl, 2 CaCl2, and 1 MgCl2). […] The oocytes were superfused with Ori buffer titrated to pH 6.5, the membrane potential of the oocytes was clamped to −40 mV, and inward current induced by superfusion with Ori buffer (pH 6.5) containing 5 mM of a control dipeptide or 5 mM of the tested tripeptide was measured.

[2] = test system: RS1 at the TGN in LLC-PK1 cells; test: Immunostaining of RS1 in subconfluent LLC-PK1 cells after brefeldin A; assay type: cell-based; conditions: 2 μg/ml brefeldin A, 1 min or 5 min
Experimental: For immunostaining, LLC-PK1 cells were grown on coverslips to about 50% confluence. The cells were washed twice with washing buffer (5 mM 3-(N-morpholino)propanesulfonic acid-NaOH, pH 7.4, 100 mM NaCl, 3 mM KCl, 2 mM CaCl2, and 1 mM MgCl2), fixed for 12 min with 4% (w/v) paraformaldehyde diluted in washing buffer, and washed twice again. Free aldehyde groups were quenched by 10 min incubation with washing buffer containing 40 mM glycine. For immunoreactions, washed cells were permeabilized by a 10-min incubation with washing buffer containing 0.25% (w/v) TritonX-114, and incubated over night at 4° C. with primary antibodies diluted in washing buffer. The dilutions of primary antibodies were as follows: rabbit-anti-RS1-Ab 1:50 (Valentin (2000), Biochim. Biophys. Acta, 1468, 367-380); QIS30 directed against SGLT1 1:400 (Kipp (2003), Am. J. Physiol., 285, C737-C749), sheep-anti-TGN46 1:125 (from Diagnostic International, Schriesheim, Germany). After incubation with primary antibodies, cells were washed 3 times with washing buffer and incubated for 1 h at room temperature with fluorochrome linked secondary antibodies (goat antibody against rabbit IgG linked to AlexaFluor 488 Molecular Probes, Leiden, Netherlands, and donkey anti-sheep IgG coupled to Cy2 from Dianova, Hamburg, Germany). […]

[3] = 10 mM QCP in drinking water pH 6.0, 2 months, standard chow or sugar low diet
Description: The body weight development with and without peptide treatment is compared over 2 months.

[4] = test system: hSGLT1; test: [14C]AMG uptake after incubating oocytes expressing hSGLT1 with or without hPEPT1 with tripeptide in the medium; assay type: cell-based, human; conditions: pH 6.5
Experimental: In a different experimental setup, oocytes were injected with SGLT1 cRNA (2.5 ng per oocyte) or with hSGLT1 cRNA (2.5 ng per oocyte) plus hPEPT1 cRNA (10 ng per oocyte) and the oocytes were incubated 3 days for expression. Thereafter the oocytes were incubated 30 min with Ori buffer adjusted to pH 6.5 or with Ori buffer adjusted to pH 6.5 containing 3 mM of the tested tripeptide. Thereafter oocytes were washed with Ori buffer (pH 7.4) and uptake of [^14C]AMG was measured.
It was furthermore elucidated whether in human small intestine the expression of hSGLT1 can be inhibited by oral ingestion of QCP. […] Thereafter the oocytes were washed with neutral Ori buffer and the hSGLT1 expressed uptake of 50 μM [^14C]AMG was measured (FIG. 7). QCP had no effect in oocytes in which hSGLT1 but not hPEPT1 was expressed (data not shown). However, in oocytes expressing hSGLT1 plus hPEPT1, [^14C]AMG uptake was inhibited by about 50% when the oocytes had been incubated with QCP (FIG. 7). Incubation of oocytes expressing hSGLT1 plus hPEPT1 with PCQ had no effect on the expressed uptake of [^14C]AMG.

[5] = test system: hOCT2; conditions: intracellular AMG 0.1 mM, <0.01 mM or 10 mM
Experimental: Corresponding measurements were performed in the presence of intracellular AMG concentrations of 0.1 mM, <0.01 mM or 10 mM.

[6] = test system: SGLT1; conditions: 60 min pre-incubation, pH 6.5, 3 mM QCP, 0.1 mM D-glucose
Experimental: Walls of small intestinal mucosa from mice are inserted into an Ussing chamber and the SGLT1 mediated transepitehila currents are measured that are induced by addition of 0.1 mM D-glucose to the mucosal side. The intestinal walls are pre-incubated for 60 min with buffer at pH 6.5 containing 0.1 mM D-glucose or with buffer at pH 6.5 containing 0.1 mM D-glucose plus 3 mM of QCP. After washing glucose-induced transepithelial currents are measured.

[7] = test system: hSGLT1; test: hSGLT1 expressed [14C]AMG uptake in Xenopus oocytes after injection of hRS1 protein or hRS1 peptides; assay type: cell-based, human
[8] = test system: sodium dependent amino acid transporters; conditions: 60 min, pH 6.5, 3 mM QCP, 10 mM amino acids
Experimental: Walls of small intestinal mucosa from mice are inserted into an Ussing chamber and transepitehial currents are measured that are induced by addition of 10 mM of various amino acids to the mucosal side. The intestinal walls are incubated for 60 min with buffer at pH 6.5 containing 0.1 mM D-glucose or with buffer at pH 6.5 containing 0.1 mM D-glucose plus 3 mM of QCP. After washing, amino acid induced transepithelial currents without and with preteatment with QCP are compared.

In the case of `NCC(=O)N[C@@H](CCC(N)=O)C(=O)O` [GC, glycylglutamine, reference compound] (H-Gly-Gln-OH), the “inward currents in oocytes expressing hPEPT1” value ([1]; 5 mM peptide, pH 6.5, clamped to -40 mV) is reported as “significant inward currents” and the “inward currents in control oocytes not injected with hPEPT1 cRNA” value ([1]; data not shown) is reported as “no inward currents”.
With `C[C@H]1CCC/C=C/[C@@H]2C[C@H](O)C[C@H]2[C@H](O)/C=C/C(=O)O1` [brefeldin A] the “immunoreactivity of RS1 at the perinuclear compartment” value [2] was “disappeared within several minutes”.
For Glutamine-Cysteine-Proline [QCP], the body weight [3] was “body weight is reduced”, the “effect on AMG uptake in oocytes expressing hSGLT1 but not hPEPT1” value [4] was “no effect” and the “inhibition of [14C]AMG uptake in oocytes expressing hSGLT1 plus hPEPT1” value [4] was “about 50%”. For the same compound, the “hOCT2 expressed [14C]TEA uptake after injection” value [5] was “appears not to be inhibited”, the transepithelial glucose flux [6] was “inhibits transepithelial glucose flux” and the “AMG uptake inhibition in the absence of BTXB” value [7] was “inhibited”. For the same compound, the “AMG uptake inhibition in the presence of BTXB” value [7] was “no significant inhibition”, the “inhibition of glucose uptake expressed by hSGLT1” value [7] was “about 50%” and the “inhibition of hSGLT1 expressed AMG uptake after stimulation of protein kinase C” value [7] was “not changed”. The “inhibition of hSGLT1 expressed AMG uptake with coexpressed dominant negative mutant of dynamin I” value [7] was “not changed”, the “inhibition of hSGLT1 expressed uptake of AMG after 3 h” value [7] was 60% and the “inhibition of hSGLT1 expressed uptake of AMG after 5 h” value [7] was “about 40%”. For the same compound, the “inhibition of hSGLT1 expressed uptake of AMG after 10 h” value [7] was 20-30%, the “inhibitory effect on expression of hSGLT1 when the exocytotic pathway was blocked” value [7] was “could be prevented” and the “intracellular concentration of QCP at which 35-40% inhibition was obtained” value [7] was “below 5 nM”. For the same compound, the “inhibition of hSGLT1 expressed AMG uptake” value ([7]; 0.05 µM) was 35-40%, the “inward currents in control oocytes not injected with hPEPT1 cRNA” value [1] was “no inward currents” and the “inward currents in oocytes expressing hPEPT1” value ([1]; pH 6.5) was “significant inward currents”. For the same compound, the “transepithelial flux of amino acids” value [8] was “inhibits transepithelial flux of amino acids”.
In the case of “SDSDRIEP [Serine-Aspartic acid-Serine-Aspartic acid-Arginine-Isoleucine-Glutamic acid-Proline, octapeptide of hRS1, amino acid positions 43 to 50]”, the “inhibition of glucose uptake expressed by hSGLT1” value [7] is reported as “about 50%”, the “inhibition of hSGLT1 expressed AMG uptake after stimulation of protein kinase C” value [7] is reported as “not changed” and the “inhibition of hSGLT1 expressed AMG uptake with coexpressed dominant negative mutant of dynamin I” value [7] is reported as “not changed”. For the same compound, the “inhibitory effect on expression of hSGLT1 when the exocytotic pathway was blocked” value [7] was “could be prevented”.
For “SVQPCQENQ [reverse nonapeptide of […], reference compound]”, the “inhibition of uptake of 50 μM [14C]AMG” value ([7]; 50 nl/oocyte containing 1.5 mM peptide injected, 30 min) was “No inhibition”.
